This data set concerns Colo320DM tumor cells. Description: Colo320DM colon cancer xenograft model in BALB/c nude mice. The class given is in vivo. The following applies: for tumor volume (mean±standard error of mean) / tumor volume smaller than vehicle-treated group: Day 14. As to the method: Based on the favorable PK profile of WX-024 in mice, as described above, the efficacy of WX-024 was investigated in a mouse xenograft colon cancer model. The Colo320DM colon cancer model in BALB/c nude mice was employed, in which Colo320DM cells are injected subcutaneously into BALB/c nude mice.
Colo320DM tumor cells (ATCC) were cultured in RPMI1640 medium (GIBCO, Cat #31800022) supplemented with 10% heat-inactivated fetal bovine serum at 37° C. Harvesting of Colo320DM cells was done when cells were growing in an exponential growth phase. Female BALB/c nude mice (Shanghai Laboratory Animal Center) were used for the study at 6-8 weeks of age. Animals had free access to water and irradiation sterilized food throughout the study period. Each mouse (n=16) was inoculated subcutaneously in the right flank region with 5×10^6 Colo320DM tumor cells in 0.1 mL of PBS. Tumors were allowed to develop for 14 days after inoculation, at which time the mean tumor size was 156.78 mm^3. During the study, the care and use of animals was conducted in accordance with the Association for Assessment and Accreditation of Laboratory Animal Care (AAALAC). Following inoculation of tumor cells, animals were checked daily for morbidity and mortality. The body weight of each animal was monitored throughout the study.
4% ethanol+8% Tween 80+88% 10 mM PBS was used as a vehicle. All treatments were administered once daily. The WX-024 solution was dissolved in pure DMSO and then diluted with sterile water. The dosing volume was adjusted for body weight such that the dosing volume for each animal was 0.05 mL/10 g of body weight for i.v. dosing. The treatment period was 14 days.
All treatments were begun as daily i.v. dosing. […] The injection method was changed to i.p. injection at Day 7 for the 10 mg/kg and 15 mg/kg groups. Dosing via i.p. injection (with the dosing volume adjusted to 0.1 ml/10 g) was maintained for the 10 and 15 mg/kg groups from Day 7 of the treatment period onwards, and the body weight of these animals stabilized.
Tumor volumes were measured in two dimensions using a caliper at Days 0, 3, 5, 7, 9, 11, 14 of the treatment period (all dosing starting after 14 days of tumor development). The volume of the tumor was measured using the equation: V=0.5 a×b^2, wherein a and b are the long and short diameters of the tumor, respectively. Tumor volumes are expressed in mm^3. At the end of the study (i.e., following 22 days of treatment) the tumor mass weight was measured.
At the conclusion of the Colo320DM model, tumor and intestinal samples were collected, fixed in formalin, and imbedded in paraffin using standard techniques. Four μm-thick section of tissue were prepared for immunohistochemistry (IHC) staining. The tissue sections were deparaffinized and rehydrated via sequential washing with xylene, graded ethanol and phosphate-buffered saline (PBS). Following deparaffinization and rehydration, the tissue sections were subjected to high temperature-induced epitope retrieval in target retrieval solution (10 mM citrate buffer; pH 6.0).
Antibody binding was detected using an UltraVision Quanto Detection System (Thermo, Cat #TL-060-QHD) kit following the manufacturer's instructions. The sections were treated with Hydrogen Peroxide Block and Ultra V Block (provided in the kit) and then incubated with primary antibody overnight at 4° C.: CD44 (Abcam, Cat #ab157107 diluted 1:500), Axin (LSBio, Rabbit IgG, Cat #LS-B7029, Lot #51907, Stock Conc.: 1000 ug/ml), or VEGFA (VEGFA: LS Bio, Rabbit IgG, Cat #LS-B10263, Lot #65323, Stock Conc.: 1000 ug/ml). Rabbit IgG replaced the primary antibody in the negative control. All sections were counterstained with hematoxylin, dehydrated and mounted. IHC images were taken with an Olympus CKX31SF reverse microscope.

In the case of `CC[C@H](C)[C@@H]1NC(=O)[C@@](C)(NC(=O)[C@H](CCCNC(=N)N)NC(=O)[C@H](CC(C)C)NC(=O)[C@@H](NC(=O)[C@H](CCC(N)=O)NC(=O)[C@H](CC(C)C)NC(C)=O)[C@@H](C)O)CCCC=CCCC[C@@](C)(C(=O)N[C@@H](CC(C)C)C(=O)N[C@@H](Cc2ccc3ccccc3c2)C(N)=O)NC(=O)[C@H](CCCNC(=N)N)NC(=O)[C@H](CCC(N)=O)NC1=O` [WX-024, LQTLRXaa1IQRXaa2L], the “effect on body weight” value (5 mg/kg i.v. throughout the study) is on record as “without an apparent effect on body weight”. In addition, the “tumor volume (mean±standard error of mean)” value by setting is: (5 mg/kg) 2039±373.29 mm^3; (10 mg/kg (i.v. then i.p. from Day 7)) 1370±114.39 mm^3; (15 mg/kg (i.v. then i.p. from Day 7)) 1157.6±99.04 mm^3. In addition, the intestinal morphology result (10 mg/kg or 15 mg/kg, 22 days) is on record as “maintained”. The “tumor volume smaller than vehicle-treated group” value is 44.9% (10 mg/kg) and 53.2% (15 mg/kg). The “average body weight loss compared to vehicle” value (15 mg/kg i.v. daily, after 3 days of treatment) is reported as “approximately 11%”. Besides, the “Axin 2 staining of intestine” value (15 mg/kg, 22 days) is “decreased Axin 2 staining”. Besides, the “CD44 staining of tumor” value (15 mg/kg, 22 days) is recorded as “decrease in CD44 staining”. The tumor mass weight entry (10 or 15 mg/kg, 22 days of treatment) is reported as “substantially less than tumor mass of vehicle-treated mice”. For the setting “Colo320DM xenograft”, the “IC50, preliminary dose-response correlation with predicted tumor size” value is on record as 12.69 mg/kg. In addition, for the setting “immunohistochemistry”, the “VEGFA expression in tumors” value was “capable of suppressing VEGFA expression in tumors”.

Values taken from patent publication US12264185B2, “Stabilized BCL9 peptides for treatment of aberrant Wnt signaling” (WntRx Pharmaceuticals Inc., priority 2015, dated 2025).
